Numbers after ± are expanded uncertainties.
Details: Liquid; for speed of sound: Pulse-echo method; for mass density: Vibrating tube method

For `CCCCCCCCCCC` [undecane], which speed of sound (278 K, 1000 kPa) is on record?
The speed of sound was 1355.2 ± 5.6 m/s.

What about the mass density (278 K, 1000 kPa) of the same molecule?
The mass density was 752.64 ± 1.2 kg/m3.

And the speed of sound (278 K, 20000 kPa)?
The speed of sound was 1455.4 ± 6 m/s.

And the mass density (278 K, 20000 kPa)?
The mass density was 764.19 ± 1.3 kg/m3.

What about the speed of sound (278 K, 40000 kPa) of the same molecule?
Its speed of sound is 1547.8 ± 6.3 m/s.

What about the mass density (278 K, 40000 kPa) of the same molecule?
Its mass density is 775.36 ± 1.4 kg/m3.

What about the speed of sound (278 K, 60000 kPa) of the same molecule?
The speed of sound was 1629.3 ± 6.6 m/s.

And the mass density (278 K, 60000 kPa)?
The mass density was 785.14 ± 1.4 kg/m3.

What about the speed of sound (278 K, 80000 kPa) of the same molecule?
Its speed of sound is 1702.6 ± 6.9 m/s.

What about the speed of sound (278 K, 100000 kPa) of the same molecule?
The speed of sound was 1770.5 ± 7.2 m/s.

And the speed of sound (288 K, 1000 kPa)?
Its speed of sound is 1315 ± 5.4 m/s.

What about the mass density (288 K, 1000 kPa) of the same molecule?
The mass density was 745.18 ± 1.2 kg/m3.

What about the speed of sound (288 K, 20000 kPa) of the same molecule?
Its speed of sound is 1419.1 ± 5.8 m/s.

What about the mass density (288 K, 20000 kPa) of the same molecule?
Its mass density is 757.29 ± 1.3 kg/m3.

What about the speed of sound (288 K, 40000 kPa) of the same molecule?
The speed of sound was 1514.4 ± 6.2 m/s.

What about the mass density (288 K, 40000 kPa) of the same molecule?
Its mass density is 768.82 ± 1.4 kg/m3.

And the speed of sound (288 K, 60000 kPa)?
The speed of sound was 1598 ± 6.5 m/s.

And the mass density (288 K, 60000 kPa)?
Its mass density is 778.9 ± 1.4 kg/m3.

And the speed of sound (288 K, 80000 kPa)?
The speed of sound was 1673 ± 6.8 m/s.

And the speed of sound (288 K, 100000 kPa)?
The speed of sound was 1742.4 ± 7.1 m/s.

And the speed of sound (298 K, 1000 kPa)?
The speed of sound was 1275.2 ± 5.2 m/s.

What about the mass density (298 K, 1000 kPa) of the same molecule?
Its mass density is 737.58 ± 1.2 kg/m3.

And the speed of sound (298 K, 20000 kPa)?
Its speed of sound is 1383.2 ± 5.7 m/s.

What about the mass density (298 K, 20000 kPa) of the same molecule?
The mass density was 750.5 ± 1.3 kg/m3.

And the speed of sound (298 K, 40000 kPa)?
Its speed of sound is 1481.3 ± 6.1 m/s.

And the mass density (298 K, 40000 kPa)?
Its mass density is 762.53 ± 1.3 kg/m3.

And the speed of sound (298 K, 60000 kPa)?
Its speed of sound is 1566.9 ± 6.4 m/s.

And the mass density (298 K, 60000 kPa)?
The mass density was 773.01 ± 1.4 kg/m3.

What about the speed of sound (298 K, 80000 kPa) of the same molecule?
Its speed of sound is 1643.4 ± 6.7 m/s.

And the speed of sound (298 K, 100000 kPa)?
Its speed of sound is 1714.4 ± 7 m/s.

What about the speed of sound (308 K, 1000 kPa) of the same molecule?
The speed of sound was 1236.3 ± 5.1 m/s.

And the mass density (308 K, 1000 kPa)?
Its mass density is 729.86 ± 1.2 kg/m3.

What about the speed of sound (308 K, 20000 kPa) of the same molecule?
Its speed of sound is 1348.6 ± 5.5 m/s.

And the mass density (308 K, 20000 kPa)?
The mass density was 743.8 ± 1.3 kg/m3.

What about the speed of sound (308 K, 40000 kPa) of the same molecule?
Its speed of sound is 1449.8 ± 5.9 m/s.

And the mass density (308 K, 40000 kPa)?
The mass density was 756.47 ± 1.3 kg/m3.

What about the speed of sound (308 K, 60000 kPa) of the same molecule?
Its speed of sound is 1537.3 ± 6.3 m/s.

And the mass density (308 K, 60000 kPa)?
Its mass density is 767.47 ± 1.4 kg/m3.

And the speed of sound (308 K, 80000 kPa)?
Its speed of sound is 1615.1 ± 6.6 m/s.

What about the speed of sound (308 K, 100000 kPa) of the same molecule?
The speed of sound was 1687.2 ± 6.9 m/s.

What about the speed of sound (318 K, 1000 kPa) of the same molecule?
Its speed of sound is 1197.9 ± 4.9 m/s.

What about the mass density (318 K, 1000 kPa) of the same molecule?
The mass density was 722.02 ± 1.2 kg/m3.

What about the speed of sound (318 K, 20000 kPa) of the same molecule?
The speed of sound was 1314.1 ± 5.4 m/s.

What about the mass density (318 K, 20000 kPa) of the same molecule?
The mass density was 737.19 ± 1.2 kg/m3.

What about the speed of sound (318 K, 40000 kPa) of the same molecule?
The speed of sound was 1418.4 ± 5.8 m/s.

What about the mass density (318 K, 40000 kPa) of the same molecule?
The mass density was 750.63 ± 1.3 kg/m3.

And the speed of sound (318 K, 60000 kPa)?
Its speed of sound is 1508.1 ± 6.2 m/s.

And the mass density (318 K, 60000 kPa)?
The mass density was 762.26 ± 1.4 kg/m3.

And the speed of sound (318 K, 80000 kPa)?
The speed of sound was 1587.7 ± 6.5 m/s.

And the speed of sound (318 K, 100000 kPa)?
The speed of sound was 1661.4 ± 6.8 m/s.

Reference: the NIST ThermoML archive (doi:10.1016/j.jct.2012.10.025)
